≈ marks a conversion by molar mass, not a printed value.
Experiments:
Format in all cases: functional
Escherichia coli [1] = assay: Antimicrobial activity against Escherichia coli X580 under iron-sufficient condition by broth microdilution method
Escherichia coli [2] = assay: Antimicrobial activity against Escherichia coli X580 under iron-deficient condition by broth microdilution method
Escherichia coli [3] = assay: Antimicrobial activity against Escherichia coli EC14 under iron-sufficient condition by broth microdilution method
Escherichia coli [4] = assay: Antimicrobial activity against Escherichia coli EC14 under iron-deficient condition by broth microdilution method
Pseudomonas aeruginosa [5] = assay: Antimicrobial activity against Pseudomonas aeruginosa X620 under iron-sufficient condition by broth microdilution method
Pseudomonas aeruginosa [6] = assay: Antimicrobial activity against Pseudomonas aeruginosa X620 under iron-deficient condition by broth microdilution method
Pseudomonas aeruginosa [7] = assay: Antimicrobial activity against Pseudomonas aeruginosa X621 under iron-sufficient condition by broth microdilution method
Pseudomonas aeruginosa [8] = assay: Antimicrobial activity against Pseudomonas aeruginosa X621 under iron-deficient condition by broth microdilution method
Staphylococcus aureus [9] = assay: Antimicrobial activity against Staphylococcus aureus X1.1 under iron-sufficient condition by broth microdilution method
Staphylococcus aureus [10] = assay: Antimicrobial activity against Staphylococcus aureus X1.1 under iron-deficient condition by broth microdilution method
Micrococcus luteus [11] = assay: Antimicrobial activity against Micrococcus luteus under iron-sufficient condition by broth microdilution method
Micrococcus luteus [12] = assay: Antimicrobial activity against Micrococcus luteus under iron-deficient condition by broth microdilution method
Enterococcus faecium = assay: Antimicrobial activity against Enterococcus faecium NCTC after 18 hrs by CLSI protocol based broth microdilution method
Staphylococcus aureus [13] = assay: Antimicrobial activity against Staphylococcus aureus SG 511 after 18 hrs by CLSI protocol based broth microdilution method; conditions: SG 511, 18 h
Klebsiella pneumoniae = assay: Antimicrobial activity against Klebsiella pneumoniae 700603 after 18 hrs by CLSI protocol based broth microdilution method; conditions: Klebsiella pneumoniae, 700603, 18 h
Acinetobacter baumannii = assay: Antimicrobial activity against Acinetobacter baumannii ATCC 17961 after 18 hrs by CLSI protocol based broth microdilution method; conditions: ATCC 17961, 18 h
Pseudomonas aeruginosa [14] = assay: Antimicrobial activity against Pseudomonas aeruginosa ATCC 27853 after 18 hrs by CLSI protocol based broth microdilution method; conditions: ATCC 27853, 18 h
Klebsiella aerogenes = assay: Antimicrobial activity against Enterobacter aerogenes ATCC 35029 after 18 hrs by CLSI protocol based broth microdilution method; conditions: ATCC 35029, 18 h
Escherichia coli [15] = assay: Antimicrobial activity against Escherichia coli ATCC 25922 after 18 hrs by CLSI protocol based broth microdilution method; conditions: ATCC 25922, 18 h
Staphylococcus aureus [16] = assay: Antimicrobial activity against Staphylococcus aureus X1.1
Staphylococcus aureus [17] = assay: Antimicrobial activity against Staphylococcus aureus V41
Streptococcus = assay: Antimicrobial activity against Streptococcus AC283
Streptococcus pneumoniae = assay: Antimicrobial activity against Streptococcus pneumoniae PARK

Row | Structure (SMILES) | MIC (Enterococcus faecium) | MIC (Staphylococcus aureus [13]) | MIC (Klebsiella pneumoniae) | MIC (Acinetobacter baumannii) | MIC (Pseudomonas aeruginosa [14]) | MIC (Klebsiella aerogenes) | MIC (Escherichia coli [15]) | also measured
1 | CN[C@H](CC(C)C)C(=O)N[C@H]1C(=O)N[C@@H](CC(N)=O)C(=O)N[C@H]2C(=O)N[C@H]3C(=O)N[C@H](C(=O)N[C@H](C(=O)O)c4cc(O)cc(O)c4-c4cc3ccc4O)[C@H](O)c3ccc(c(Cl)c3)Oc3cc2cc(c3O[C@@H]2O[C@H](CO)[C@@H](O)[C@H](O)[C@H]2O[C@H]2C[C@](C)(NC(=O)CCC(=O)N(O)CCCCCNC(=O)CCC(=O)N(CCCCNC(=O)c3cccc(O)c3O)CCCNC(=O)c3cccc(O)c3O)[C@H](O)[C@H](C)O2)Oc2ccc(cc2Cl)[C@H]1O |  |  |  |  |  |  |  | MIC (Escherichia coli [1]): 32 µM (≈ 68.8 µg/mL); MIC (Escherichia coli [2]): 128 µM (≈ 275 µg/mL); MIC (Escherichia coli [3]): > 128 µM; MIC (Escherichia coli [4]): > 128 µM; MIC (Pseudomonas aeruginosa [5]): > 128 µM; MIC (Pseudomonas aeruginosa [6]): > 128 µM; MIC (Pseudomonas aeruginosa [7]): > 128 µM; MIC (Pseudomonas aeruginosa [8]): > 128 µM; MIC (Staphylococcus aureus [9]): 8 µM (≈ 17.2 µg/mL); MIC (Staphylococcus aureus [10]): 8 µM (≈ 17.2 µg/mL); MIC (Micrococcus luteus [11]): 16 µM (≈ 34.4 µg/mL); MIC (Micrococcus luteus [12]): 16 µM (≈ 34.4 µg/mL)
2 | O=C(O)c1cn(C2CC2)c2cc(N3CCN(C(=O)CCC(=O)N(O)CCCCCO)CC3)c(F)cc2c1=O | > 128 µM | 32 µM (≈ 17 µg/mL) | 16 µM (≈ 8.52 µg/mL) | 16 µM (≈ 8.52 µg/mL) | 128 µM (≈ 68.2 µg/mL) | 4 µM (≈ 2.13 µg/mL) | 2 µM (≈ 1.07 µg/mL) | 
3 | O=C(CCC(=O)N(CCCCNC(=O)c1cccc(O)c1O)CCCNC(=O)c1cccc(O)c1O)N[C@@H]1C(=O)N2C(C(=O)O)=C(Cl)CC[C@H]12 |  |  |  |  |  |  |  | MIC (Staphylococcus aureus [16]): 64 µg/mL (≈ 89.4 µM); MIC (Staphylococcus aureus [17]): 64 µg/mL (≈ 89.4 µM); MIC (Streptococcus): 16 µg/mL (≈ 22.3 µM); MIC (Streptococcus pneumoniae): 64 µg/mL (≈ 89.4 µM)
4 | O=C(CCC(=O)N(O)CCCCCO)NCCCCCN(O)C(=O)CCC(=O)N1CCN(c2cc3c(cc2F)c(=O)c(C(=O)O)cn3C2CC2)CC1 | > 128 µM | 64 µM (≈ 46.9 µg/mL) | 128 µM (≈ 93.8 µg/mL) | 64 µM (≈ 46.9 µg/mL) | 64 µM (≈ 46.9 µg/mL) | 4 µM (≈ 2.93 µg/mL) | 2 µM (≈ 1.47 µg/mL) | 
5 | O=C(CCC(=O)N(O)CCCCCO)NCCCCCN(O)C(=O)CCC(=O)NCCCCCN(O)C(=O)CCC(=O)N[C@@H](C(=O)N[C@@H]1C(=O)N2C(C(=O)O)=C(Cl)CC[C@H]12)c1ccccc1 | > 128 µM | 64 µM (≈ 60.9 µg/mL) | > 128 µM | 64 µM (≈ 60.9 µg/mL) | > 128 µM | > 128 µM | 128 µM (≈ 122 µg/mL) | 
6 | CN[C@H](CC(C)C)C(=O)N[C@H]1C(=O)N[C@@H](CC(N)=O)C(=O)N[C@H]2C(=O)N[C@H]3C(=O)N[C@H](C(=O)N[C@H](C(=O)O)c4cc(O)cc(O)c4-c4cc3ccc4O)[C@H](O)c3ccc(c(Cl)c3)Oc3cc2cc(c3O[C@@H]2O[C@H](CO)[C@@H](O)[C@H](O)[C@H]2O[C@H]2C[C@](C)(NC(=O)CCC(=O)N(CCCCNC(=O)c3cccc(O)c3O)CCCNC(=O)c3cccc(O)c3O)[C@H](O)[C@H](C)O2)Oc2ccc(cc2Cl)[C@H]1O |  |  |  |  |  |  |  | MIC (Escherichia coli [1]): > 128 µM; MIC (Escherichia coli [2]): 128 µM (≈ 249 µg/mL); MIC (Escherichia coli [3]): > 128 µM; MIC (Escherichia coli [4]): > 128 µM; MIC (Pseudomonas aeruginosa [5]): > 128 µM; MIC (Pseudomonas aeruginosa [6]): > 128 µM; MIC (Pseudomonas aeruginosa [7]): > 128 µM; MIC (Pseudomonas aeruginosa [8]): 32 µM (≈ 62.4 µg/mL); MIC (Staphylococcus aureus [9]): 32 µM (≈ 62.4 µg/mL); MIC (Staphylococcus aureus [10]): 32 µM (≈ 62.4 µg/mL); MIC (Micrococcus luteus [11]): 16 µM (≈ 31.2 µg/mL); MIC (Micrococcus luteus [12]): 32 µM (≈ 62.4 µg/mL)
7 | O=C(CCC(=O)N(O)CCCCCO)N[C@@H](C(=O)N[C@@H]1C(=O)N2C(C(=O)O)=C(Cl)CC[C@H]12)c1ccccc1 | > 128 µM | 16 µM (≈ 8.82 µg/mL) | > 128 µM | ≥ 128 µM | > 128 µM | > 128 µM | > 128 µM | 
8 | O=C(CCC(=O)N(O)CCCCCO)NCCCCCN(O)C(=O)CCC(=O)N[C@@H](C(=O)N[C@@H]1C(=O)N2C(C(=O)O)=C(Cl)CC[C@H]12)c1ccccc1 | > 128 µM | 64 µM (≈ 48.1 µg/mL) | > 128 µM | 32 µM (≈ 24 µg/mL) | > 128 µM | > 128 µM | ≥ 128 µM | 

— ChEMBL document CHEMBL4373724, “An overview of recent progress in siderophore-antibiotic conjugates” (2019)
